Results as given in patent US20240116985A1, “STAPLED PEPTIDES AND METHODS THEREOF” (priority 2020, published 2024).

What follows are compounds tested against T1, full-length beta-Catenin (Uniprot ID P35222) (Homo sapiens, UniProt P35222) (assay: Fluorescence polarization IC50 (beta-catenin / 5FAM-TCF4 10-53 competition)). Conditions: fluorescence polarization; read-out: beta-Catenin FP IC50.
T1 construct: 10 nM full-length beta-Catenin (Uniprot ID P35222)
T1 sequence (P35222 1-781): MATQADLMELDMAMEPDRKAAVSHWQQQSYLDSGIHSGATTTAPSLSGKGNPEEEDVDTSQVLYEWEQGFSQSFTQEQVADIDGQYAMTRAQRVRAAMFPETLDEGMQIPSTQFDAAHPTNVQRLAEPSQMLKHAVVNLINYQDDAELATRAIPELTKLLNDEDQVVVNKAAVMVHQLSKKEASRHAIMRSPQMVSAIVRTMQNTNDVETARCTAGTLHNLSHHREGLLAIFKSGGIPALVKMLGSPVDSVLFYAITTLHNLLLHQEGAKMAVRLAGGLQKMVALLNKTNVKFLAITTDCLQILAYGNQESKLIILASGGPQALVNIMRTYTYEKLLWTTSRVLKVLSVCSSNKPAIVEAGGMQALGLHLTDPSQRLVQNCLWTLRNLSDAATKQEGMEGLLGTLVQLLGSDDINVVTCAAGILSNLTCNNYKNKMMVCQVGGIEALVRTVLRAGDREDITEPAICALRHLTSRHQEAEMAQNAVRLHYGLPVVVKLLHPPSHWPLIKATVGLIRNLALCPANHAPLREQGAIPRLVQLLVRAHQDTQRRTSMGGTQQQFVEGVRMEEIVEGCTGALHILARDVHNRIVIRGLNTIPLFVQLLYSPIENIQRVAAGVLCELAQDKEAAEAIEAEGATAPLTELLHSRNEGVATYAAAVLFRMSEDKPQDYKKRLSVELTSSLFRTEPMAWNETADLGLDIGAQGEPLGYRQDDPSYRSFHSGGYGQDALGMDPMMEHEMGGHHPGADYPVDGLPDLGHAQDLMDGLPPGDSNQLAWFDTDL
Format: binding

IC50	SMILES
282 nM	CC(=O)N1CCC[C@]12CC=CCCCC1(CCCC=CCCCOC(=O)N3CC[C@@](C(=O)N[C@@H](Cc4ccccc4)C(=O)N[C@@H](Cc4csc5ccccc45)C(=O)N[C@@H](CCC(N)=O)C(N)=O)(C3)NC(=O)[C@H](CC(C)C)NC(=O)[C@H](Cc3ccccc3)NC(=O)[C@H](C)NC(=O)[C@H](C)NC(=O)[C@H](Cc3c[nH]cn3)NC(=O)[C@H](CC(=O)O)NC1=O)NC(=O)[C@H](CC(C)(C)C)NC(=O)[C@H](CC(N)=O)NC2=O (stereo partly drawn) [I-2442, Ac-PL3-Asn-Npg-B5-Asp-His-Ala-Ala-Phe-Leu-PyrS2-Phe-BztA-Gln-NH2]
6670 nM	CC(=O)N1CCC[C@]12CC=CCCCC1(CCCC=CCCCOC(=O)N3CC[C@@](C(=O)N[C@@H](Cc4ccccc4)C(=O)N[C@@H](Cc4csc5ccccc45)C(=O)N[C@@H](CCC(N)=O)C(N)=O)(C3)NC(=O)[C@H](CC(C)C)NC(=O)[C@H](Cc3ccccc3)NC(=O)[C@H](C)NC(=O)[C@H](C)NC(=O)[C@H](CCC(N)=O)NC(=O)[C@H](CC(=O)O)NC1=O)NC(=O)[C@H](CC(C)(C)C)NC(=O)[C@H](CCO)NC2=O (stereo partly drawn) [I-2443, Ac-PL3-Hse-Npg-B5-Asp-Gln-Ala-Ala-Phe-Leu-PyrS2-Phe-BztA-Gln-NH2]
121 nM	CCCc1cn(CCCC[C@@H](NC(=O)[C@H](CO)NC(=O)[C@H](Cc2csc3ccccc23)NC(=O)[C@H](Cc2ccccc2C(F)(F)F)NC(=O)[C@]23CCN(C2)C(=O)OCCCC=CCCCC2(CCCC=CC[C@]4(CCCN4C(C)=O)C(=O)N[C@@H](CC(=O)O)C(=O)N[C@@H](CC(C)(C)C)C(=O)N2)C(=O)N[C@@H](CC(=O)O)C(=O)N[C@@H](Cc2cccc(C(=O)O)c2)C(=O)N[C@@H](C)C(=O)N[C@@H](C)C(=O)N[C@@H](Cc2ccccc2)C(=O)N[C@@H](CC(C)C)C(=O)N3)C(N)=O)nn1 (stereo partly drawn) [I-2444, Ac-PL3-Asp-Npg-B5-Asp-3COOHF-Ala-Ala-Phe-Leu-PyrS2-2F3MeF-BztA-Ser-[3C]TriAzdLys-NH2]
75 nM	CC(=O)N1CCC[C@]12CC=CCCCC1(CCCC=CCCCOC(=O)N3CC[C@@](C(=O)N[C@@H](Cc4ccccc4C(F)(F)F)C(=O)N[C@@H](Cc4ccc5ccccc5c4)C(=O)N[C@@H](C)C(N)=O)(C3)NC(=O)[C@H](CC(C)C)NC(=O)[C@H](Cc3ccccc3)NC(=O)[C@H](C)NC(=O)[C@H](CCC(N)=O)NC(=O)[C@H](Cc3cccc(C(=O)O)c3)NC(=O)[C@H](CC(=O)O)NC1=O)NC(=O)[C@H](CC(C)(C)C)NC(=O)[C@H](CC(=O)O)NC2=O (stereo partly drawn) [I-2461, Ac-PL3-Asp-Npg-B5-Asp-3COOHF-Gln-Ala-Phe-Leu-PyrS2-2F3MeF-2NapA-Ala-NH2]
15 nM	CC(=O)N1CCC[C@]12CC=CCCCC1(CCCC=CCCCOC(=O)N3CC[C@@](C(=O)N[C@@H](Cc4ccccc4C(F)(F)F)C(=O)N[C@@H](Cc4csc5ccccc45)C(=O)N[C@@H](CCC(=O)N(C)C)C(=O)N[C@@H](C)C(N)=O)(C3)NC(=O)[C@H](CC(C)C)NC(=O)[C@H](Cc3ccccc3)NC(=O)[C@H](C)NC(=O)[C@H](C)NC(=O)[C@H](Cc3cccc(C(=O)O)c3)NC(=O)[C@H](CC(=O)O)NC1=O)NC(=O)[C@H](CC(C)(C)C)NC(=O)[C@H](CC(=O)O)NC2=O (stereo partly drawn) [I-2466, Ac-PL3-Asp-Npg-B5-Asp-3COOHF-Ala-Ala-Phe-Leu-PyrS2-2F3MeF-BztA-Me2Gln-Ala-NH2]
24 nM	CCNC(=O)CC[C@H](NC(=O)[C@H](Cc1csc2ccccc12)NC(=O)[C@H](Cc1ccccc1C(F)(F)F)NC(=O)[C@]12CCN(C1)C(=O)OCCCC=CCCCC1(CCCC=CC[C@]3(CCCN3C(C)=O)C(=O)N[C@@H](CC(=O)O)C(=O)N[C@@H](CC(C)(C)C)C(=O)N1)C(=O)N[C@@H](CC(=O)O)C(=O)N[C@@H](Cc1cccc(C(=O)O)c1)C(=O)N[C@@H](C)C(=O)N[C@@H](C)C(=O)N[C@@H](Cc1ccccc1)C(=O)N[C@@H](CC(C)C)C(=O)N2)C(=O)N[C@@H](C)C(N)=O (stereo partly drawn) [I-2470, Ac-PL3-Asp-Npg-B5-Asp-3COOHF-Ala-Ala-Phe-Leu-PyrS2-2F3MeF-BztA-NHEt]GlnR-Ala-NH2]
7 nM	CCNC(=O)CC[C@H](NC(=O)[C@H](Cc1csc2ccccc12)NC(=O)[C@H](Cc1ccsc1)NC(=O)[C@]12CCN(C1)C(=O)OCCCC=CCCCC1(CCCC=CC[C@]3(CCCN3C(C)=O)C(=O)N[C@@H](CC(=O)O)C(=O)N[C@@H](CC(C)(C)C)C(=O)N1)C(=O)N[C@@H](CC(=O)O)C(=O)N[C@@H](Cc1cccc(C(=O)O)c1)C(=O)NC(C)(C)C(=O)N[C@@H](C)C(=O)N[C@@H](Cc1ccccc1)C(=O)N[C@@H](CC)C(=O)N2)C(=O)N[C@@H](C)C(N)=O (stereo partly drawn) [I-2473, Ac-PL3-Asp-Npg-B5-Asp-3COOHF-Aib-Ala-Phe-Abu-PyrS2-3Thi-BztA-[NHEt]GlnR-Ala-NH2]

Second part, the compound before the results:

SMILES	IC50
CC(=O)N1CCC[C@]12CC=CCCCC1(CCCC=CCCCOC(=O)N3CC[C@@](C(=O)N[C@@H](Cc4ccccc4)C(=O)N[C@@H](Cc4csc5ccccc45)C(=O)N[C@@H](CCC(N)=O)C(N)=O)(C3)NC(=O)[C@H](Cc3c[nH]cn3)NC(=O)[C@H](Cc3ccccc3)NC(=O)[C@H](C)NC(=O)[C@H](C)NC(=O)[C@H](CCC(N)=O)NC(=O)[C@H](CC(=O)O)NC1=O)NC(=O)[C@H](CC(C)(C)C)NC(=O)[C@H](CC(N)=O)NC2=O (stereo partly drawn) [I-2440, Ac-PL3-Asn-Npg-B5-Asp-Gln-Ala-Ala-Phe-His-PyrS2-Phe-BztA-Gln-NH2]	360 nM
CC(=O)N1CCC[C@]12CC=CCCCC1(CCCC=CCCCOC(=O)N3CC[C@@](C(=O)N[C@@H](Cc4ccccc4)C(=O)N[C@@H](Cc4csc5ccccc45)C(=O)N[C@@H](CCC(N)=O)C(N)=O)(C3)NC(=O)[C@H](CC(C)C)NC(=O)[C@H](Cc3ccccc3)NC(=O)[C@H](C)NC(=O)[C@H](CCO)NC(=O)[C@H]([C@@H](C)O)NC(=O)[C@H](CC(=O)O)NC1=O)NC(=O)[C@H](CC1CCCCC1)NC(=O)[C@H](CC(N)=O)NC2=O (stereo partly drawn) [I-2447, Ac-PL3-Asn-Cha-B5-Asp-Thr-Hse-Ala-Phe-Leu-PyrS2-Phe-BztA-Gln-NH2]	3250 nM
CC(=O)N1CCC[C@]12CCCCCCC1(CCCCCCCCOC(=O)N3CC[C@@](C(=O)N[C@@H](Cc4ccsc4)C(=O)N[C@@H](Cc4csc5ccccc45)C(=O)N[C@@H](CCC(N)=O)C(N)=O)(C3)NC(=O)[C@H](CC(C)C)NC(=O)[C@H](Cc3ccccc3)NC(=O)[C@H](C)NC(=O)[C@H](CCO)NC(=O)[C@H](CCC(N)=O)NC(=O)[C@H](CC(=O)O)NC1=O)NC(=O)[C@H](CC1CCCCC1)NC(=O)[C@H](CC(N)=O)NC2=O (stereo partly drawn) [I-2451, Ac-PL3-Asn-Cha-B5-Asp-Gln-Hse-Ala-Phe-Leu-PyrS2-3Thi-BztA-Gln-NH2]	4860 nM
CC(=O)N1CCC[C@]12CCCCCCC1(CCCCCCCCOC(=O)N3CC[C@@](C(=O)N[C@@H](Cc4ccsc4)C(=O)N[C@@H](Cc4csc5ccccc45)C(=O)N[C@@H](CCC(N)=O)C(N)=O)(C3)NC(=O)[C@H](CC(C)C)NC(=O)[C@H](Cc3ccccc3)NC(=O)[C@H](C)NC(=O)[C@H](CCCCNC(C)C)NC(=O)[C@H](CCC(N)=O)NC(=O)[C@H](CC(=O)O)NC1=O)NC(=O)[C@H](CC1CCCCC1)NC(=O)[C@H](CC(N)=O)NC2=O (stereo partly drawn) [I-2452, Ac-PL3-Asn-Cha-B5-Asp-Gln-iPrLys-Ala-Phe-Leu-PyrS2-3Thi-BztA-Gln-NH2]	7200 nM
CC[C@@H]1NC(=O)[C@H](Cc2ccccc2)NC(=O)[C@H](C)NC(=O)C(C)(C)NC(=O)[C@H](Cc2cccc(C(=O)O)c2)NC(=O)[C@H](CC(=O)O)NC(=O)C2(CCCC=CCCCOC(=O)N3CC[C@@](C(=O)N[C@@H](Cc4ccsc4)C(=O)N[C@@H](Cc4csc5ccccc45)C(=O)N[C@@H](CCC(=O)N4CCCCC4)C(=O)N[C@@H](C)C(N)=O)(C3)NC1=O)CCCC=CC[C@]1(CCCN1C(C)=O)C(=O)N[C@@H](CC(=O)O)C(=O)N[C@@H](CC(C)(C)C)C(=O)N2 (stereo partly drawn) [I-2476, Ac-PL3-Asp-Npg-B5-Asp-3COOHF-Aib-Ala-Phe-Abu-PyrS2-3Thi-BztA-[Pip]GlnR-Ala-NH2]	7 nM
CC(=O)N1CCC[C@]12CC=CCCCC1(CCCC=CCCCOC(=O)N3CC[C@@](C(=O)N[C@@H](Cc4ccsc4)C(=O)N[C@@H](Cc4csc5ccccc45)C(=O)N[C@@H](CC(C)C)C(N)=O)(C3)NC(=O)[C@H](CC(N)=O)NC(=O)[C@H](Cc3ccccc3)NC(=O)[C@H](C)NC(=O)C(C)(C)NC(=O)[C@H]([C@@H](C)O)NC(=O)[C@H](CC(N)=O)NC1=O)NC(=O)[C@H](CC(C)(C)C)NC(=O)[C@H](CC(=O)O)NC2=O (stereo partly drawn) [I-2479, Ac-PL3-Asp-Npg-B5-Asn-Thr-Aib-Ala-Phe-Asn-PyrS2-3Thi-BztA-Leu-NH2]	627 nM
CC(=O)N1CCC[C@]12CC=CCCCC1(CCCC=CCCCOC(=O)N3CC[C@@](C(=O)N[C@@H](Cc4ccsc4)C(=O)N[C@@H](Cc4csc5ccccc45)C(=O)N[C@H](C(N)=O)C(C)C)(C3)NC(=O)[C@H](CC(N)=O)NC(=O)[C@H](Cc3ccccc3)NC(=O)[C@H](C)NC(=O)C(C)(C)NC(=O)[C@H]([C@@H](C)O)NC(=O)[C@H](CC(N)=O)NC1=O)NC(=O)[C@H](CC(C)(C)C)NC(=O)[C@H](CC(=O)O)NC2=O (stereo partly drawn) [I-2480, Ac-PL3-Asp-Npg-B5-Asn-Thr-Aib-Ala-Phe-Asn-PyrS2-3Thi-BztA-Val-NH2]	475 nM
